Experimental data published in paper PMC8129715 (CPT: Pharmacometrics & Systems Pharmacology, 2021).
Read-outs that look alike come from different tables or passages of the source.

Key:
[1] = In vitro plasma protein binding; format: in vitro ADME, human; conditions: unpublished data reported by Eisai Inc.
[2] = Human blood to plasma concentration ratio; format: in vitro ADME
[3] = PBPK simulation of lemborexant PK in healthy individuals; set-up: species or system human
[4] = Biliary excretion in rats; format: in vivo
[5] = system: cryopreserved human hepatocytes; assay: Metabolism in cryopreserved human hepatocytes with CYP inhibitors; format: in vitro ADME; conditions: 1-aminobenzotriazole, troleandomycin and ketoconazole
CYP3A [6] = conditions: cited from earlier work
[7] = system: other CYP isoforms (1A2, 2A6, 2B6, 2C8, 2C9, 2C19, 2D6, 2E1, 2J2, 3A5, 4F12); assay: Metabolism by recombinant human CYP isoforms; format: in vitro ADME; conditions: 37°C for 20 min; unpublished data reported by Eisai Inc.
CYP2B6 [8] = conditions: lemborexant 10 mg q.d. for 13 days, bupropion 75 mg on day 10, healthy adults; cited from earlier work
CYP2B6 [9] = assay: In vitro induction; format: in vitro ADME; conditions: unpublished data reported by Eisai Inc.
[10] = cited from earlier work
CYP3A4 [11] = biological target: CYP3A4 (Homo sapiens, UniProt P08684); assay: Metabolism by recombinant human CYP isoforms; format: in vitro ADME; conditions: 37°C for 20 min; unpublished data reported by Eisai Inc.
CYP3A4 (Homo sapiens, UniProt P08684), sequence (P08684 whole entry, canonical isoform): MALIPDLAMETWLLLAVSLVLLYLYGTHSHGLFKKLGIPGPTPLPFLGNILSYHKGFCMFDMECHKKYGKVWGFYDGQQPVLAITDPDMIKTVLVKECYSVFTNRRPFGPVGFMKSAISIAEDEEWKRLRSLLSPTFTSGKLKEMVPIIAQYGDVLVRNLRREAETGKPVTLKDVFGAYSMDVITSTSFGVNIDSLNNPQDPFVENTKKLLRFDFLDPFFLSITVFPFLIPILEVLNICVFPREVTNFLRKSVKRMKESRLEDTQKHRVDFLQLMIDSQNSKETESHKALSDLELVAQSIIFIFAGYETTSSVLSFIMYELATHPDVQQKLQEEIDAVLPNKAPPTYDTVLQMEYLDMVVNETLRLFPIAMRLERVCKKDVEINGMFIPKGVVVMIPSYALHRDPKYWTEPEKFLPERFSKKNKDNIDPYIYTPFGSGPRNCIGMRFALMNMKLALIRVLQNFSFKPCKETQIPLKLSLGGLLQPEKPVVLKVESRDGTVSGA

[12] = pKa by capillary electrophoresis method; format: physicochemical
[13] = capsule, cited from earlier work; for Observed AUC(0-t) / Observed Cmax: geometric mean; for Observed Cmax: healthy individuals
CYP3A [14] = assay: In vitro time-dependent inhibition; format: in vitro ADME; conditions: unpublished data reported by Eisai Inc.
P-glycoprotein = conditions: in vitro; cited from earlier work
[15] = system: breast cancer resistance protein; conditions: in vitro; cited from earlier work
CYP3A4 [16] = assay: In vitro induction; format: in vitro ADME; conditions: unpublished data reported by Eisai Inc.
[17] = multiple 10 mg oral doses, capsule, cited from earlier work
[18] = human mass-balance study, cited from earlier work
[19] = single 10 mg oral dose, IR tablet, ref study E2006-A001-008 (NCT02089412), cited from earlier work; for Observed Cmax: geometric mean
[20] = cited from earlier work; remark: listed apart in the source
[21] = single 10 mg oral dose, IR tablet, DDI study, cited from earlier work
[22] = multiple 10 mg oral doses, day 1
[23] = multiple 10 mg oral doses, day 14
[24] = single 10 mg oral dose, IR tablet, fasted, food effect study
[25] = single 10 mg oral dose, IR tablet, fed
[26] = single 10 mg oral dose, solution vs capsule
[27] = single 100 mg oral dose, solution vs capsule
[28] = co-administration with rifampicin 600 mg q.d.
[29] = lemborexant 10 mg with fluconazole 200 mg q.d.

## Cc1ncc(OC[C@@]2(c3cccc(F)c3)C[C@H]2C(=O)Nc2ccc(F)cn2)c(C)n1 [lemborexant]
[1]
  Main binding protein in plasma: human serum albumin, low‐density lipoprotein, and high‐density lipoprotein
[2]; B:P (blood-to-plasma partition ratio), mean, mean value from unpublished data reported by Eisai Inc.
  blood plasma ratio: 0.636
[2]; human blood to plasma concentration ratio (B:P), concentration range 100–1000 ng/ml, unpublished data reported by Eisai Inc.
  blood plasma ratio: 0.61 to 0.656
[3]; food effect study 008, 10 mg IR tablet
  fold difference (predicted/observed) of Cmax ratio for fasted and fed conditions: 0.768
[3]; [22]
  Fold difference, predicted/observed, AUC(0-t): 0.92
  Fold difference, predicted/observed, Cmax: 0.86
[3]; [23]
  Fold difference, predicted/observed, AUC(0-t): 1.02
  Fold difference, predicted/observed, Cmax: 0.73
[3]; single 2.5 mg oral dose, solution vs capsule
  Fold difference, predicted/observed, AUC(0-t): 0.89
[3]; single 10 mg oral dose, IR tablet
  Fold difference, predicted/observed, AUC(0-t): 0.80
[3]; [24]
  Fold difference, predicted/observed, AUC(0-t): 0.85
  Fold difference, predicted/observed, Cmax: 0.45
[3]; [25]
  Fold difference, predicted/observed, AUC(0-t): 0.71
  Fold difference, predicted/observed, Cmax: 0.34
[3]; [26]
  Fold difference, predicted/observed, AUC(0-t): 1.29
  Fold difference, predicted/observed, Cmax: 0.85
[3]; [27]
  Fold difference, predicted/observed, AUC(0-t): 0.76
  Fold difference, predicted/observed, Cmax: 1.08
[4]
  biliary excretion of lemborexant: no biliary excretion
[5]
  lemborexant metabolism in human hepatocytes in presence of CYP inhibitors: completely inhibited
CYP3A [6]; co-administered with itraconazole and fluconazole
  increase in AUCR with strong and moderate CYP3A inhibitors: ≤ 3.8 fold
CYP3A [6]; [28]
  reduction of lemborexant AUC(0-inf): 97%
  reduction of lemborexant Cmax: 92%
CYP3A [6]; [29]
  increase in lemborexant AUC(0-t): 3.8 fold
  increase in lemborexant Cmax: 1.6 fold
CYP3A [6]; lemborexant 10 mg with itraconazole 200 mg q.d.
  increase in lemborexant Cmax: 1.36 fold
[7]
  residual ratio after incubation with other recombinant CYP isoforms: ≥ 81%
CYP2B6 [8]
  decrease in plasma exposures of S-bupropion: 45.5%
CYP2B6 [9]
  inductive effect on CYP2B6: weak
[10]; human plasma, 100–1000 ng/ml, no concentration dependency
  in vitro plasma protein binding (bound): 87.4–88.7%
[10]; mean value based on lemborexant 100 ng/ml
  Fu (fraction unbound in plasma): 0.113
CYP3A4 [11]
  residual ratio after incubation with recombinant CYP3A4: 30%
[12]
  pKa: < 3.5
[13]; single 2.5 mg oral dose
  Observed AUC(0-t): 74.4 ng·h/mL
  Observed Cmax: 14.9 ng/mL
[13]; single 10 mg oral dose
  Observed AUC(0-t): 274 ng·h/mL
  Observed Cmax: 32.0 ng/mL
[13]; single 10 mg oral dose, median
  Observed Tmax: 1.00 h
[13]; single 100 mg oral dose
  Observed AUC(0-t): 4,300 ng∙h/ml
  Observed Cmax: 242 ng/mL
CYP3A [14]
  time-dependent inhibition on CYP3A: weak
P-glycoprotein
  transport of lemborexant via P-glycoprotein: negligible
[15]
  transport of lemborexant via breast cancer resistance protein: negligible
CYP3A4 [16]
  inductive effect on CYP3A4: weak
[17]; day 1, geometric mean
  Observed AUC(0-t): 182 ng·h/mL
  Observed Cmax: 28.0 ng/mL
[17]; day 1, median
  Observed Tmax: 3.25 h
[17]; day 14, geometric mean
  Observed AUC(0-t): 321 ng·h/mL
  Observed Cmax: 44.8 ng/mL
[17]; day 14, median
  Observed Tmax: 1.75 h
[18]; 10 mg capsule
  CL/F (apparent oral clearance): 32.8 L/h
[18]; [14C]lemborexant 10 mg
  unchanged lemborexant in feces: 13.0 % of dose
  unchanged lemborexant in urine: not detected
[19]; fasted, food effect study
  Observed Cmax: 57.1 ng/mL
[19]; fasted, food effect study, median
  Observed Tmax: 1.00 h
[19]; fed (standard high-fat meal)
  Observed Cmax: 44.1 ng/mL
[20]; doses of 5 mg and above
  clinical efficacy (sleep): clinically meaningful sleep benefits
[20]; lemborexant exposures greater than 10 mg
  somnolence adverse events: increased risk of somnolence adverse events
[21]; geometric mean
  Observed AUC(0-t): 411 ng·h/mL
[21]; median
  Observed Tmax: 1.00 h
[21]; healthy individuals, geometric mean
  Observed Cmax: 54.3 ng/mL
